Experimental data taken from PubChem BioAssay (NCI).
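Where inhibition never reached the appropriate level, the endpoint shown equals the highest concentration tested. Otherwise, values were interpolated linearly from a five-concentration, 48-hour dose response in 96-well plates. GI50 marks 50% less growth. Definition used: TGI = concentration required for complete inhibition of growth.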

What was measured:
Experiment in all cases: DTP human tumour cell line panel, 48 h
COLO 205 colon = system: COLO 205 colon
UACC-62 melanoma = system: UACC-62 melanoma
MDA-MB-435 = system: MDA-MB-435
U251 CNS = system: U251 CNS
LOX IMVI melanoma = system: LOX IMVI melanoma
DU-145 prostate = system: DU-145 prostate
UO-31 renal = system: UO-31 renal
CAKI-1 renal = system: CAKI-1 renal
HS 578T breast = system: HS 578T breast
M14 melanoma = system: M14 melanoma

Structure (SMILES)	GI50 (COLO 205 colon) [µM]	TGI (COLO 205 colon) [µM]	GI50 (UACC-62 melanoma) [µM]	TGI (UACC-62 melanoma) [µM]	GI50 (MDA-MB-435) [µM]	TGI (MDA-MB-435) [µM]	GI50 (U251 CNS) [µM]	TGI (U251 CNS) [µM]	GI50 (LOX IMVI melanoma) [µM]	TGI (LOX IMVI melanoma) [µM]	GI50 (DU-145 prostate) [µM]	TGI (DU-145 prostate) [µM]	GI50 (UO-31 renal) [µM]	TGI (UO-31 renal) [µM]	GI50 (CAKI-1 renal) [µM]	TGI (CAKI-1 renal) [µM]	GI50 (HS 578T breast) [µM]	TGI (HS 578T breast) [µM]	GI50 (M14 melanoma) [µM]	TGI (M14 melanoma) [µM]
O=C1OCC(c2ccc(O)cc2)=C1c1cc(O)c(O)c(O)c1	> 100	> 100	> 100	> 100	26.4	53.8	31.4	> 100	32.6	> 100	> 100	> 100	> 100	> 100	43.2	89.6	> 100	> 100	> 100	> 100
CC(=O)NNc1nc(C)c(C(/C=C/c2ccc([N+](=O)[O-])cc2)=N/NC(N)=O)s1	–	> 100	–	> 100	–	> 100	–	> 100	–	> 100	–	> 100	–	> 100	–	> 100	–	> 100	–	> 100
CC(CN1CC(=O)NC(=O)C1)N1CC(=O)NC(=O)C1 (stereo unspecified)	25.3	443	–	> 686	–	> 750	–	> 750	–	> 750	–	> 750	–	> 750	–	> 750	–	> 391	–	> 750
CCNc1cc2oc(=O)cc(C(F)(F)F)c2cc1C	–	> 100	–	> 100	–	> 100	–	> 100	–	> 100	–	> 100	–	> 100	–	> 100	–	> 100	–	> 100
CCOc1cc(C(=O)O)c2c(ccc3ccc(OC)c(OC)c32)c1OC	–	> 100	–	> 100	–	> 100	–	> 100	–	> 100	–	> 100	–	> 100	–	> 100	–	> 100	–	> 100
Cc1cc(C(=O)Nc2cc(Oc3ccc4nc(NC(=O)C5CC5)cn4n3)ccc2C)n(C)n1	> 10	> 10	> 10	> 10	3.22	> 10	> 10	> 10	> 10	> 10	> 10	> 10	> 10	> 10	> 10	> 10	7.48	> 10	5.51	> 10
Clc1ccccc1[C@@H]1C[C@@H]2Cc3cc(Br)c4ccccc4c3N1O2	3.95	74	4.29	> 100	2.08	20.4	3.65	> 100	6.28	> 100	5.59	> 100	6.05	> 100	4.18	> 100	3.04	8.82	3.74	> 100
